Data from PMC10470313, “Developing a peptide to disrupt cohesin head domain interactions” (iScience, 2023).
Where no end group is shown, it is not given here.

Test system: yME-961 strain yeast cells
Test: Cell cycle stage by flow cytometry
Format: cell-based
Details: peptide 1 h at G1, release to G2/M arrest
Protocol: The potential of CIP3-TAT to inhibit cohesion activity was explored by analyzing sister chromatid cohesion in cells arrested at the G2/M. Inserted in the LYS4 locus were LacO arrays, which bind LacI-GFP. In unperturbed cells arrested at the G2/M phase of the cell cycle, cohesin tethers the sister chromatids visualized under the microscope as a single GFP dot. When cohesin is inactivated, the sister chromatids fall apart and are seen as two distinctive GFP dots. yME-961 strain cells were grown to mid-log phase and arrested at the G1 phase of the cell cycle. Cells were divided into three samples, of which two were supplemented with TAT peptide alone or CIP3-TAT for 1 h. Then, the cells were released into the cell cycle until their rearrest at the G2/M phase. Cells were processed for cohesion assay (Figure 4A).
Supplementary Figure S3. Binding of CIP3-TAT to cohesin by microscale thermophoresis, Related to Figure 3. 10 µM CIP3-TAT was added to protein extracts from strain yAM-945 (Smc3-GFP). The formation of the CIP3-TAT and cohesin complex was analyzed by MST in binding mode. A. MST trace. […]
3. […] The purified proteins were analyzed on gel, followed by coomassie staining. […]
Supplementary Figure S5. […] The entry of the peptide into the cells was analyzed by epifluorescence microscopy.
Supplementary Figure S6. […] The cell cycle stage of the cells, described in Fig. 4B, was determined by flow cytometry. […]

KRFKDMEYLSGGEKTGGYGRKKRRQRRR [CIP3-TAT]
cell cycle delay: No cell cycle delays
